# Measurements reported in US9302988B2, “Fluoromethyl-substituted pyrrole carboxamides” (GRÜNENTHAL GMBH, priority 2012, dated 2016).
# Biological target: T1, Human CaV2.2 channels (Homo sapiens, UniProt Q00975)
# T1 construct: expressed in transfected cells
# Assay: Fluorescent assay for CaV2.2 channels using potassium depolarization to induce channel opening (FLIPR, Fluo-4)
# Format: cell-based
# Details: 3 μM test compound, 30 mM KCl, HEK293 cells stably expressing human CaV2.2; read-out: %-Inhib (CaV2.2) @3 μM @30 mM KCl
# How it was run: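 Channel block was read as the baseline-normalized peak Ca²⁺ signal (Fluo-4, 480/535 nm) after a high-KCl depolarizing addition (210 mM KCl buffer). Beforehand, compound sat 15 min at 25 °C on HEK293 cells carrying human CaV2.2, α2δ/β subunits and Kir2.3, in pH 7.4 buffer with 30 mM KCl.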
# T1 sequence (Q00975 whole entry): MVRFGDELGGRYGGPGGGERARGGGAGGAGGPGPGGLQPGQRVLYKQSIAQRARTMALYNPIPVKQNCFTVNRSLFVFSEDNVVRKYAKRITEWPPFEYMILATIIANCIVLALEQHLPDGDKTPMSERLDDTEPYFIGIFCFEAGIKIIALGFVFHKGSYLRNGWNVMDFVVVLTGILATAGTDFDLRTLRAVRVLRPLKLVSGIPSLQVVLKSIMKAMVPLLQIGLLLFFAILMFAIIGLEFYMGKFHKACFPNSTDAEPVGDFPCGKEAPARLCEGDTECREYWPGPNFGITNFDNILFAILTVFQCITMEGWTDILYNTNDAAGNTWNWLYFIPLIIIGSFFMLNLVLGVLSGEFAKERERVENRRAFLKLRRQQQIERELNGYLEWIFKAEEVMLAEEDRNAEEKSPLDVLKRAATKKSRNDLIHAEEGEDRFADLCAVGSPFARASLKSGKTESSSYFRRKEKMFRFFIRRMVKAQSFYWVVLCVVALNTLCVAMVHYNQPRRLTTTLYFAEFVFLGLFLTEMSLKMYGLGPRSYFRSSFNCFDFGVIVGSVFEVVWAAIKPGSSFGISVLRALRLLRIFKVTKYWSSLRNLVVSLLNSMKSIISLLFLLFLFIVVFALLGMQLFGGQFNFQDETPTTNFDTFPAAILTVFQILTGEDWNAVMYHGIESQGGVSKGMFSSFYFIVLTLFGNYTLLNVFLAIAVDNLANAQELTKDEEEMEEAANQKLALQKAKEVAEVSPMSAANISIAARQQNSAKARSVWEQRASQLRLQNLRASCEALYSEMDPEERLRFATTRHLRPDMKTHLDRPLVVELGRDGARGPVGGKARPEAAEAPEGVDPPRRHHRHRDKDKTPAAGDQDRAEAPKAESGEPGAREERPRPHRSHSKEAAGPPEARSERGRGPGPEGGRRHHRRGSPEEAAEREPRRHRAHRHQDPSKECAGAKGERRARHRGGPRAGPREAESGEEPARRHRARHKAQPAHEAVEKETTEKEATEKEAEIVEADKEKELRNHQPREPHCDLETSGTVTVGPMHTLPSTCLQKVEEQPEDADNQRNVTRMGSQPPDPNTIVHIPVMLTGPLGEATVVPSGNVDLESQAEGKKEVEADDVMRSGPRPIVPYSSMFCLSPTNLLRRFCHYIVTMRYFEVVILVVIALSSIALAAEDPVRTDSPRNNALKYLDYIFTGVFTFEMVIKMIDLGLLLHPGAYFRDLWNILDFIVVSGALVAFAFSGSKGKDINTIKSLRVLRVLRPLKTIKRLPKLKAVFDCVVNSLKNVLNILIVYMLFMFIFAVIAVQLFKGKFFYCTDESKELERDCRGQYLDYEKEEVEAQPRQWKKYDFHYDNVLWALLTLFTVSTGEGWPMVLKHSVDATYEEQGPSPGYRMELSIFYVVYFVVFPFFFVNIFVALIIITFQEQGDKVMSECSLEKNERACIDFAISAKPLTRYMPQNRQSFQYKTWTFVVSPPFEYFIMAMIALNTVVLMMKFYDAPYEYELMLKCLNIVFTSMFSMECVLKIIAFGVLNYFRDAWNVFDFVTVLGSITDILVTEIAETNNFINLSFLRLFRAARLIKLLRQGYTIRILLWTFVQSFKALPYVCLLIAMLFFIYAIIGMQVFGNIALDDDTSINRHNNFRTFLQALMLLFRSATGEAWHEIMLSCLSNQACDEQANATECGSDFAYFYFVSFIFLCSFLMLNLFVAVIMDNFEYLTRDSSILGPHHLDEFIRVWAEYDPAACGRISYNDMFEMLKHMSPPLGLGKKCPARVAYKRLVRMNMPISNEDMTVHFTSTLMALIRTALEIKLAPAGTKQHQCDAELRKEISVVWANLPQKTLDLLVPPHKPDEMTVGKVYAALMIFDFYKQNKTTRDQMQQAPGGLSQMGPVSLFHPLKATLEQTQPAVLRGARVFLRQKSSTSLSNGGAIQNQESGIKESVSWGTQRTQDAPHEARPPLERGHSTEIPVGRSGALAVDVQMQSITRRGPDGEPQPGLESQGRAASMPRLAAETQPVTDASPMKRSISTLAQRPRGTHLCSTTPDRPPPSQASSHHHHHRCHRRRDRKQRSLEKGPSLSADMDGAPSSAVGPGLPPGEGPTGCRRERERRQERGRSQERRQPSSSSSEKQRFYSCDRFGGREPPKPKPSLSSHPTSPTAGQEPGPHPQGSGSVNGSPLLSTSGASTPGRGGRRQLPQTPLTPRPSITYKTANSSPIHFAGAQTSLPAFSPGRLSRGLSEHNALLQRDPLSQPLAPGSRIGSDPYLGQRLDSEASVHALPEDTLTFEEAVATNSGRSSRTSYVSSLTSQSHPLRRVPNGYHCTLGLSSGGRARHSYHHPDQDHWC
# T1 sequence (P54289 25-1103, further chain): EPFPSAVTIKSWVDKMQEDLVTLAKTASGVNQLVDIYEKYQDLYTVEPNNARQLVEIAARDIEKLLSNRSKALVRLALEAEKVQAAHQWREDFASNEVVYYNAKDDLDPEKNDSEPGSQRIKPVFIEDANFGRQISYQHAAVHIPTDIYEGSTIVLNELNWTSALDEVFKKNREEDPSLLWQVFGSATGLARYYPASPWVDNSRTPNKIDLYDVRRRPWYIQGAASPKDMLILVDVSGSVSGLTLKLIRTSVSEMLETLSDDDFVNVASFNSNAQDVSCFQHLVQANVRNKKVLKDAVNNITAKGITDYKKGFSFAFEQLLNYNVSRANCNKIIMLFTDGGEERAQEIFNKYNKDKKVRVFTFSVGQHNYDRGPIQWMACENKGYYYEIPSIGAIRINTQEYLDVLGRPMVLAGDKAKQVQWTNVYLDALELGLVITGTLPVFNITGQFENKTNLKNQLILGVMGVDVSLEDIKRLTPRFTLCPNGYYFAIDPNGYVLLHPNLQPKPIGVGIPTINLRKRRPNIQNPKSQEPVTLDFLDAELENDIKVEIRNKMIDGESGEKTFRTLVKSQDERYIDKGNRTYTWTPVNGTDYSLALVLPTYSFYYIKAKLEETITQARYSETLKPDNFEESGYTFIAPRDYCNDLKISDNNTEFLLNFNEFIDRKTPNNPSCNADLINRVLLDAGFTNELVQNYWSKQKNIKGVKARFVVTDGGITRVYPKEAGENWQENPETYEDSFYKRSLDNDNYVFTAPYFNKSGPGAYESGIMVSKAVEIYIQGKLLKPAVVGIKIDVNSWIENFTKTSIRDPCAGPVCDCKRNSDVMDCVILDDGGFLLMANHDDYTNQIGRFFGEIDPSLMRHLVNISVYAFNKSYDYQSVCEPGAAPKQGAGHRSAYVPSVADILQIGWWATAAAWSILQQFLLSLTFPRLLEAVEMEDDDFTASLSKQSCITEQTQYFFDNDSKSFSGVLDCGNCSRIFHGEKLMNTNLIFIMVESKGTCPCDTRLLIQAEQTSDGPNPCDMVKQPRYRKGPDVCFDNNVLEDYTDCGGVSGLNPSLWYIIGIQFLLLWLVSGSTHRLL
# T1 sequence (P54284 whole entry, further chain): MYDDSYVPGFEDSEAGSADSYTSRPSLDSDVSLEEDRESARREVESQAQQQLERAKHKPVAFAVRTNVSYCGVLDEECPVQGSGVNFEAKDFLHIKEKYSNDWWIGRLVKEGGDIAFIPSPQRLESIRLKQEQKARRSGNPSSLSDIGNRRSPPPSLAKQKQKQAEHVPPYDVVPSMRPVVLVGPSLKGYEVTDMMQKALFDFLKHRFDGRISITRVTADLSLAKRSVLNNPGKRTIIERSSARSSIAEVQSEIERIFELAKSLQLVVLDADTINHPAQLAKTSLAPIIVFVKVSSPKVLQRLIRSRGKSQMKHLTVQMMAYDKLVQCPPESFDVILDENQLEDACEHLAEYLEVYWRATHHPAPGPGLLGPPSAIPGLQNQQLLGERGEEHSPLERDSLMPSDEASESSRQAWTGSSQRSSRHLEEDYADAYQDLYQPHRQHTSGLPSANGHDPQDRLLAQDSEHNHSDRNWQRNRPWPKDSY
row,Structure (SMILES),inhibition at 3 µM [%]
1,"Cc1c(-c2ccc(Cl)cc2)c(C(=O)N(C)CC2(CO)CCC2)n(Cc2ccccc2)c1C(F)(F)F [SC-116, 1-Benzyl-3-(4-chlorophenyl)-N-[[1-(hydroxymethyl)-cyclobutyl]-methyl]-N,4-dimethyl-5-(trifluoromethyl)-1H-pyrrole-2-carboxylic acid amide]",> 95
2,"Cc1c(-c2ccc(Cl)cc2)c(C(=O)N2CCC(CO)C2)n(Cc2ccccc2)c1C(F)(F)F (stereo not shown) [SC-117, [1-Benzyl-3-(4-chlorophenyl)-4-methyl-5-(trifluoromethyl)-1H-pyrrol-2-yl]-[3-(hydroxymethyl)-pyrrolidin-1-yl]-methanone]",75 to 95
3,"Cc1c(-c2ccc(Cl)cc2)c(C(=O)N(C)CC(C)(C)CN2CCOCC2)n(Cc2ccccc2)c1C(F)(F)F [SC-118, 1-Benzyl-3-(4-chlorophenyl)-N-(2,2-dimethyl-3-morpholin-4-yl-propyl)-N,4-dimethyl-5-(trifluoromethyl)-1H-pyrrole-2-carboxylic acid amide]",> 95
4,"CCc1c(-c2ccc(Cl)cc2)c(C(=O)N(C)CC(C)(C)C)n(Cc2ccccc2)c1C(F)(F)F [SC-119, 1-Benzyl-3-(4-chlorophenyl)-N-(2,2-dimethyl-propyl)-4-ethyl-N-methyl-5-(trifluoromethyl)-1H-pyrrole-2-carboxylic acid amide]",75 to 95
5,"CN(CC(C)(C)C)C(=O)c1c(-c2ccc(Cl)cc2)c(C2CC2)c(C(F)(F)F)n1Cc1ccccc1 [SC-120, 1-Benzyl-3-(4-chlorophenyl)-4-cyclopropyl-N-(2,2-dimethyl-propyl)-N-methyl-5-(trifluoromethyl)-1H-pyrrole-2-carboxylic acid amide]",75 to 95
6,"Cc1c(-c2ccc(Cl)cc2)c(C(=O)N(C)CC2CCOC2)n(Cc2ccccc2)c1C(F)(F)F (stereo not shown) [SC-121, 1-Benzyl-3-(4-chlorophenyl)-N,4-dimethyl-N-(tetrahydro-furan-3-yl-methyl)-5-(trifluoromethyl)-1H-pyrrole-2-carboxylic acid amide]",> 95
7,"Cc1c(-c2ccc(Cl)cc2)c(C(=O)N(C)C(C)(C)CCO)n(Cc2ccccc2)c1C(F)(F)F [SC-122, 1-Benzyl-3-(4-chlorophenyl)-N-(3-hydroxy-1,1-dimethyl-propyl)-N,4-dimethyl-5-(trifluoromethyl)-1H-pyrrole-2-carboxylic acid amide]",> 95
8,"Cc1c(-c2ccc(Cl)cc2)c(C(=O)N2CCC(S(C)(=O)=O)C2)n(Cc2ccccc2)c1C(F)(F)F (stereo not shown) [SC-123, [1-Benzyl-3-(4-chlorophenyl)-4-methyl-5-(trifluoromethyl)-1H-pyrrol-2-yl]-(3-methylsulfonyl-pyrrolidin-1-yl)-methanone]",> 95
9,"Cc1c(-c2ccc(Cl)cc2)c(C(=O)N(C)C(CO)C(C)(C)C)n(Cc2ccccc2)c1C(F)(F)F (stereo not shown) [SC-124, 1-Benzyl-3-(4-chlorophenyl)-N-[1-(hydroxymethyl)-2,2-dimethyl-propyl]-N,4-dimethyl-5-(trifluoromethyl)-1H-pyrrole-2-carboxylic acid amide]",> 95
10,"Cc1c(-c2ccc(Cl)cc2)c(C(=O)N(C)CC(C)(CO)CO)n(Cc2ccccc2)c1C(F)(F)F [SC-125, 1-Benzyl-3-(4-chlorophenyl)-N-[3-hydroxy-2-(hydroxymethyl)-2-methyl-propyl]-N,4-dimethyl-5-(trifluoromethyl)-1H-pyrrole-2-carboxylic acid amide]",> 95
11,"Cc1c(-c2ccc(Cl)cc2)c(C(=O)N(C)C(C)(C)CO)n(Cc2ccccc2)c1C(F)(F)F [SC-126, 1-Benzyl-3-(4-chlorophenyl)-N-(2-hydroxy-1,1-dimethyl-ethyl)-N,4-dimethyl-5-(trifluoromethyl)-1H-pyrrole-2-carboxylic acid amide]",> 95
12,"Cc1c(-c2ccc(Cl)cc2)c(C(=O)N(C)CCCS(C)(=O)=O)n(Cc2ccccc2)c1C(F)(F)F [SC-127, 1-Benzyl-3-(4-chlorophenyl)-N,4-dimethyl-N-(3-methylsulfonyl-propyl)-5-(trifluoromethyl)-1H-pyrrole-2-carboxylic acid amide]",> 95
13,"CCN(CCS(C)(=O)=O)C(=O)c1c(-c2ccc(Cl)cc2)c(C)c(C(F)(F)F)n1Cc1ccccc1 [SC-128, 1-Benzyl-3-(4-chlorophenyl)-N-ethyl-4-methyl-N-(2-methylsulfonyl-ethyl)-5-(trifluoromethyl)-1H-pyrrole-2-carboxylic acid amide]",> 95
14,"Cc1c(-c2ccc(Cl)cc2)c(C(=O)NCCS(C)(=O)=O)n(Cc2ccccc2)c1C(F)(F)F [SC-129, 1-Benzyl-3-(4-chlorophenyl)-4-methyl-N-(2-methylsulfonyl-ethyl)-5-(trifluoromethyl)-1H-pyrrole-2-carboxylic acid amide]",75 to 95
15,"Cc1c(-c2ccc(Cl)cc2)c(C(=O)N(C)CCS(=O)(=O)C(C)C)n(Cc2ccccc2)c1C(F)(F)F [SC-130, 1-Benzyl-3-(4-chlorophenyl)-N-[2-(isopropylsulfonyl)-ethyl]-N,4-dimethyl-5-(trifluoromethyl)-1H-pyrrole-2-carboxylic acid amide]",> 95
16,"Cc1c(-c2ccc(Cl)cc2)c(C(=O)N(C)C2CCS(=O)(=O)CC2)n(Cc2ccccc2)c1C(F)(F)F [SC-131, 1-Benzyl-3-(4-chlorophenyl)-N-(1,1-dioxo-thian-4-yl)-N,4-dimethyl-5-(trifluoromethyl)-1H-pyrrole-2-carboxylic acid amide]",> 95
17,"CCS(=O)(=O)CCN(C)C(=O)c1c(-c2ccc(Cl)cc2)c(C)c(C(F)(F)F)n1Cc1ccccc1 [SC-132, 1-Benzyl-3-(4-chlorophenyl)-N-[2-(ethylsulfonyl)-ethyl]-N,4-dimethyl-5-(trifluoromethyl)-1H-pyrrole-2-carboxylic acid amide]",> 95
18,"Cc1c(-c2ccc(Cl)cc2)c(C(=O)N(C)CCC2CCCO2)n(Cc2ccccc2)c1C(F)(F)F (stereo not shown) [SC-133, 1-Benzyl-3-(4-chlorophenyl)-N,4-dimethyl-N-(2-tetrahydro-furan-2-yl-ethyl)-5-(trifluoromethyl)-1H-pyrrole-2-carboxylic acid amide]",> 95
19,"Cc1c(-c2ccc(Cl)cc2)c(C(=O)N(C)CC2CCCO2)n(Cc2ccccc2)c1C(F)(F)F (stereo not shown) [SC-134, 1-Benzyl-3-(4-chlorophenyl)-N,4-dimethyl-N-(tetrahydro-furan-2-yl-methyl)-5-(trifluoromethyl)-1H-pyrrole-2-carboxylic acid amide]",> 95
20,"Cc1c(-c2ccc(Cl)cc2)c(C(=O)N(C)CC2CCC[C@@H]2O)n(Cc2ccccc2)c1C(F)(F)F (stereo partly drawn) [SC-135, 1-Benzyl-3-(4-chlorophenyl)-N-[[(2S)-2-hydroxy-cyclopentyl]-methyl]-N,4-dimethyl-5-(trifluoromethyl)-1H-pyrrole-2-carboxylic acid amide]",> 95
21,"Cc1c(-c2ccc(Cl)cc2)c(C(=O)N(C)CC2CCC[C@H]2O)n(Cc2ccccc2)c1C(F)(F)F (stereo partly drawn) [SC-136, 1-Benzyl-3-(4-chlorophenyl)-N-[[(2R)-2-hydroxy-cyclopentyl]-methyl]-N,4-dimethyl-5-(trifluoromethyl)-1H-pyrrole-2-carboxylic acid amide]",> 95
22,"Cc1c(-c2ccc(Cl)cc2)c(C(=O)N2CC(S(C)(=O)=O)C2)n(Cc2ccccc2)c1C(F)(F)F [SC-137, [1-Benzyl-3-(4-chlorophenyl)-4-methyl-5-(trifluoromethyl)-1H-pyrrol-2-yl]-(3-methylsulfonyl-azetidin-1-yl)-methanone]",75 to 95
